Measurements from patent US9586963B2 (GENFIT, priority 2011, dated 2017).

Tests used:
[1] = target: T1, Rev-Erb alpha (Homo sapiens, UniProt P20393); experiment: M2H (mammalian two-hybrid) cellular activation assay of Rev-Erb alpha; assay type: cell-based; conditions: M2H assay, HEK293 cells; for EC50: Gal4-Rev-Erb alpha / VP16-NCoR, luciferase reporter; for Emax: relative to DMSO, at the tested dose, read-out: TOP activation
T1 sequence (P20393 284-614 limits assumed): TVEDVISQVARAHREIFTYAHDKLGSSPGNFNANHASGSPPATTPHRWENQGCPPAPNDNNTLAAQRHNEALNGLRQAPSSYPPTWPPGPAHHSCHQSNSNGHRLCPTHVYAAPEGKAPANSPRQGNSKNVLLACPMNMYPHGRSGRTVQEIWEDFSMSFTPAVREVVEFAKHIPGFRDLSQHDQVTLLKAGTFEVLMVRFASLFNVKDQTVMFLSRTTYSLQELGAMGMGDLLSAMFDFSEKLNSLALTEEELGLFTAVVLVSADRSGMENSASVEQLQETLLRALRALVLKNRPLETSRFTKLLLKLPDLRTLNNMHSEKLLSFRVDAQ
Method in brief: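 Six-point dose-response, 18 h, 37 °C, serum-free, in HEK293 cells carrying a Gal4-RE luciferase reporter with Gal4-Rev-Erb alpha or beta plus VP16-NCoR (corepressor interaction readout). EC50 and TOP activation (%) derived from luminescence across four experiments.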

SMILES	EC50 [1]	melting point	Emax [1]
CCc1nnc2cc(C)c(Oc3cc(C(F)(F)F)ccc3-c3cncnc3)nn12 [Cpd.5-43, 3-ethyl-7-methyl-6-(2-(pyrimidin-5-yl)-5-(trifluoromethyl)phenoxy)-[1,2,4]triazolo[4,3-b]pyridazine]	1000 to 6000 nM	149 to 150 °C	
Cc1ncc(-c2ccc(C(F)(F)F)cc2Oc2cc(C)c3nnc(Cl)n3n2)cn1 [Cpd.5-37, 3-chloro-8-methyl-6-((2-(2-methylpyrimidin-5-yl))-5-(trifluoromethyl)phenoxy)-[1,2,4]triazolo[4,3-b]pyridazine]	1000 to 6000 nM	200 to 202 °C	
NC(=O)c1ccc(Oc2ccc3nnc(Cl)n3n2)c(-c2ccccc2)c1 [Cpd.4-70, 3-chloro-6-(5-aminocarbonyl-biphenyl-2-yloxy)-[1,2,4]triazolo[4,3-b]pyridazine]	> 6000 nM	196.5 to 198.4 °C	> 130%
COc1ncccc1-c1ccc(C(F)(F)F)cc1Oc1nn2c(Cl)nnc2cc1C [Cpd.5-24, 3-chloro-7-methyl-6-((2-(2-methoxypyridin-3-yl))-5-(trifluoromethyl)phenoxy)-[1,2,4]triazolo[4,3-b]pyridazine]	1000 to 6000 nM	176 to 178 °C	
Fc1cc(Oc2ccc3nnc(Cl)n3n2)c(-c2ccccc2)cc1F [Cpd.4-26, 6-(4,5-difluoro-biphenyl-2-yloxy)-3-chloro-[1,2,4]triazolo[4,3-b]pyridazine]	100 to 1000 nM	125.6 °C	
Cc1ccc(-c2ccccc2Oc2ccc3nnc(Cl)n3n2)cc1 [Cpd.4-23, 6-(4′-methyl-biphenyl-2-yloxy)-3-chloro-[1,2,4]triazolo[4,3-b]pyridazine]	100 to 1000 nM	166.9 to 173.4 °C	
FC(F)(F)c1ccc(-c2cccnc2)c(Oc2nn3c(Cl)nnc3c3ccccc23)c1 [Cpd.5-15, 3-chloro-6-(2-(pyridin-3-yl)-5-(trifluoromethyl)phenoxy)-[1,2,4]triazolo[3,4-a]phthalazine]	< 100 nM	175 to 177 °C	
Cc1cc(Oc2cc(C(F)(F)F)ccc2-c2cccnc2)nn2c(C(F)(F)F)nnc12 [Cpd.5-32, 8-methyl-6-(2-(pyridin-3-yl)-5-(trifluoromethyl)phenoxy)-3-(trifluoromethyl)-[1,2,4]triazolo[4,3-b]pyridazine]	> 6000 nM	151 to 153 °C	> 130%
Oc1cccc(-c2ccccc2Oc2ccc3nnc(Cl)n3n2)c1 [Cpd.4-21, 6-(3′-hydroxy-biphenyl-2-yloxy)-3-chloro-[1,2,4]triazolo[4,3-b]pyridazine]	100 to 1000 nM	203.7 °C	
COc1ncc(-c2cc(Cl)ccc2Oc2ccc3nnc(Cl)n3n2)cn1 [Cpd.4-195, 3-chloro-6-(4-chloro-2-(2-methoxypyrimidin-5-yl)phenoxy)-[1,2,4]triazolo[4,3-b]pyridazine]	> 6000 nM	210 to 211 °C	> 130%
Fc1ccc(Oc2ccc3nnc(Cl)n3n2)c(-c2cccc(C(F)(F)F)c2)c1 [Cpd.4-148, 3-chloro-6-(5-fluoro-3′-(trifluoromethyl)biphenyl-2-yloxy)-[1,2,4]triazolo[4,3-b]pyridazine]	1000 to 6000 nM	94.5 to 96.1 °C	
Clc1ccc(Oc2nn3c(Cl)nnc3c3ccccc23)c(-c2cncnc2)c1 [Cpd.5-60, 3-chloro-6-(4-chloro-2-(pyrimidin-5-yl)phenoxy)-[1,2,4]triazolo[3,4-a]phthalazine]	100 to 1000 nM	252 to 253 °C	
Cc1ccc(Oc2ccc3nnc(Cl)n3n2)c(-c2ccccc2)c1 [Cpd.4-27, 6-(5-methyl-biphenyl-2-yloxy)-3-chloro-[1,2,4]triazolo[4,3-b]pyridazine]	< 100 nM	144.5 °C	
Oc1cccc(-c2cc(F)c(F)cc2Oc2ccc3nnc(C(F)(F)F)n3n2)c1 [Cpd.4-151, 3-(trifluoromethyl)-6-(4,5-difluoro-3′-hydroxybiphenyl-2-yloxy)-[1,2,4]triazolo[4,3-b]pyridazine]	1000 to 6000 nM	193 to 195 °C	
Clc1nnc2ccc(Oc3cc(CN4CCCCC4)ccc3-c3ccccc3)nn12 [Cpd.4-183, 3-chloro-6-(4-piperidin-1-ylmethylbiphenyl-2-yloxy)-[1,2,4]triazolo[4,3-b]pyridazine]	1000 to 6000 nM	163 to 164 °C	
COc1cccc(-c2ccc(C(F)(F)F)cc2Oc2ccc3nnc(C(F)(F)F)n3n2)c1 [Cpd.4-137, 3-(trifluoromethyl)-6-(3′-methoxy-4-(trifluoromethyl)biphenyl-2-yloxy)-[1,2,4]triazolo[4,3-b]pyridazine]	100 to 1000 nM	102.5 °C	

SMILES	EC50 [1]	melting point	Emax [1]
Cc1cc2nncn2nc1Oc1cc(C(F)(F)F)ccc1-c1cncnc1 [Cpd.5-44, 7-methyl-6-(2-(pyrimidin-5-yl)-5-(trifluoromethyl)phenoxy)-[1,2,4]triazolo[4,3-b]pyridazine]	> 6000 nM	179 to 181 °C	> 130%
Clc1ccc(Oc2ccc3nnc(Cl)n3n2)c(Cc2ccccc2)c1 [Cpd.4-146, 6-(2-benzyl-4-chloro-phenoxy)-3-chloro-[1,2,4]triazolo[4,3-b]pyridazine]	100 to 1000 nM	161 to 162 °C	
Fc1ccccc1-c1ccccc1Oc1ccc2nnc(Cl)n2n1 [Cpd.4-17, 6-(2′-fluoro-biphenyl-2-yloxy)-3-chloro-[1,2,4]triazolo[4,3-b]pyridazine]	100 to 1000 nM	95.9 °C	
Clc1cccc(-c2cccc(Oc3ccc4nnc(Cl)n4n3)c2)c1 [Cpd.3-13, 3-chloro-6-(3′-chlorobiphenyl-3-yloxy)-[1,2,4]triazolo[4,3-b]pyridazine]	100 to 1000 nM	77.5 to 123.8 °C	
Fc1ccc(-c2cc(F)ccc2Oc2ccc3nnc(Cl)n3n2)cc1 [Cpd.4-116, 3-chloro-6-(5,4′-difluorobiphenyl-2-yloxy)-[1,2,4]triazolo[4,3-b]pyridazine]	100 to 1000 nM	141.1 °C	
Cc1cccc(-c2ccccc2Oc2ccc3nnc(Cl)n3n2)c1 [Cpd.4-132, 3-chloro-6-(3′-methylbiphenyl-2-yloxy)-[1,2,4]triazolo[4,3-b]pyridazine]	100 to 1000 nM	51 °C	
Cc1cccc(-c2cc(F)ccc2Oc2ccc3nnc(Cl)n3n2)c1 [Cpd.4-135, 3-chloro-6-(5-fluoro-3′-methylbiphenyl-2-yloxy)-[1,2,4]triazolo[4,3-b]pyridazine]	100 to 1000 nM	94.5 to 95.1 °C	
COc1nccc(C)c1-c1ccc(C(F)(F)F)cc1Oc1nn2c(Cl)nnc2cc1C [Cpd.5-40, 3-chloro-7-methyl-6-((2-(2-methoxy-4-methylpyridin-3-yl))-5-(trifluoromethyl)phenoxy)-[1,2,4]triazolo[4,3-b]pyridazine]	1000 to 6000 nM	161 to 162 °C	
COc1ccccc1-c1cccc(Oc2ccc3nnc(Cl)n3n2)c1 [Cpd.3-8, 6-(2′-methoxy-biphenyl-3-yloxy)-3-chloro-[1,2,4]triazolo[4,3-b]pyridazine]	1000 to 6000 nM	82.5 °C	
COc1ncc(C)cc1-c1ccc(C(F)(F)F)cc1Oc1cc(C)c2nnc(Cl)n2n1 [Cpd.5-27, 3-chloro-8-methyl-6-((2-(2-methoxy-5-methylpyridin-3-yl))-5-(trifluoromethyl)phenoxy)-[1,2,4]triazolo[4,3-b]pyridazine]	1000 to 6000 nM	117 to 119 °C	
Fc1cccc(-c2ccc(F)cc2Oc2ccc3nnc(Cl)n3n2)c1 [Cpd.4-30, 6-(3′-fluoro-4-fluoro-biphenyl-2-yloxy)-3-chloro-[1,2,4]triazolo[4,3-b]pyridazine]	100 to 1000 nM	123.4 °C	
Clc1nnc2ccc(Oc3ccc(CNC4CC4)cc3-c3ccccc3)nn12 [Cpd.4-161, 3-chloro-6-(5-(cyclopropylaminomethyl)biphenyl-2-yloxy)-[1,2,4]triazolo[4,3-b]pyridazine]	1000 to 6000 nM	62.2 to 64.9 °C	
COc1ncc(-c2cc(Cl)ccc2Oc2nn3c(Cl)nnc3cc2C)cn1 [Cpd.5-56, 3-chloro-6-(4-chloro-2-(2-methoxypyrimidin-5-yl)phenoxy)-7-methyl-[1,2,4]triazolo[4,3-b]pyridazine]	1000 to 6000 nM	189 to 192 °C	
Fc1ccc(Oc2ccc3nnc(C(F)(F)F)n3n2)c(-c2ccccc2)c1 [Cpd.4-141, 3-(trifluoromethyl)-6-(5-fluorobiphenyl-2-yloxy)-[1,2,4]triazolo[4,3-b]pyridazine]	1000 to 6000 nM	85.3 to 87.7 °C	
COc1ncc(-c2cc(Cl)ccc2Oc2nn3c(Cl)nnc3c3ccccc23)cn1 [Cpd.5-57, 3-chloro-6-(4-chloro-2-(2-methoxypyrimidin-5-yl)phenoxy)-[1,2,4]triazolo[3,4-a]phthalazine]	100 to 1000 nM	213 to 215 °C	
Oc1cccc(-c2ccc(C(F)(F)F)cc2Oc2ccc3nnc(C(F)(F)F)n3n2)c1 [Cpd.4-138, 3-(trifluoromethyl)-6-(3′-hydroxy-4-(trifluoromethyl)biphenyl-2-yloxy)-[1,2,4]triazolo[4,3-b]pyridazine]	1000 to 6000 nM	195 °C	
